Test results reported in PubChem BioAssay AID1963982 (Molecular Pharmacology Branch, DTP, NCI, 2024).
pIC50: −log10 of the molar value. Values joined by “and” are separate entries in the source; they are usually repeats but may differ in a detail not shown here. Equal values may be shown once.

Tested on: 313798-341-R-J2-PDC spheroids, viability
Test: Anticancer human tumor 313798-341-R-J2-PDC patient-derived cervical squamous cell carcinoma cell line growth inhibition [PI3K]
Conditions: spheroids with HUVEC and MSC; for pIC50: curve of first compound; for viability, T/C: stronger effect = lower value; active = viability on the fitted dose curve at most 10% of control; inactive = the rest
Outline: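 Combination activity was assessed by viability in multicellular tumor spheroids carrying HUVEC and MSC components. Agents were tested with PI3K inhibitors from a Cmax-based top dose (or 10 microM) downward in half-log increments.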

[1] = second compound 0.0316 µM, first compound 0.0316 µM
[2] = second compound 0.0316 µM, first compound 0.1 µM
[3] = second compound 0.0316 µM, first compound 0.316 µM
[4] = second compound 0.0316 µM, first compound 1 µM
[5] = second compound 0.0316 µM, first compound 3.16 µM
[6] = second compound 0.0316 µM, first compound 10 µM
[7] = second compound 0.1 µM, first compound 0.0316 µM
[8] = second compound 0.1 µM, first compound 0.1 µM
[9] = second compound 0.1 µM, first compound 0.316 µM
[10] = second compound 0.1 µM, first compound 1 µM
[11] = second compound 0.1 µM, first compound 3.16 µM
[12] = second compound 0.1 µM, first compound 10 µM
[13] = second compound 0.316 µM, first compound 0.0316 µM
[14] = second compound 0.316 µM, first compound 0.1 µM
[15] = second compound 0.316 µM, first compound 0.316 µM
[16] = second compound 0.316 µM, first compound 1 µM
[17] = second compound 0.316 µM, first compound 3.16 µM
[18] = second compound 0.316 µM, first compound 10 µM
[19] = second compound 1 µM, first compound 0.0316 µM
[20] = second compound 1 µM, first compound 0.1 µM
[21] = second compound 1 µM, first compound 0.316 µM
[22] = second compound 1 µM, first compound 1 µM
[23] = second compound 1 µM, first compound 3.16 µM
[24] = second compound 1 µM, first compound 10 µM
[25] = second compound 3.16 µM, first compound 0.0316 µM
[26] = second compound 3.16 µM, first compound 0.1 µM
[27] = second compound 3.16 µM, first compound 0.316 µM
[28] = second compound 3.16 µM, first compound 1 µM
[29] = second compound 3.16 µM, first compound 3.16 µM
[30] = second compound 3.16 µM, first compound 10 µM
[31] = second compound 10 µM, first compound 0.0316 µM
[32] = second compound 10 µM, first compound 0.1 µM
[33] = second compound 10 µM, first compound 0.316 µM
[34] = second compound 10 µM, first compound 1 µM
[35] = second compound 10 µM, first compound 3.16 µM
[36] = second compound 10 µM, first compound 10 µM
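Also: spheroids exposed to compounds for seven days.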
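For viability, T/C in this document: 100% = DMSO vehicle control viability.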

C=CC(=O)N1CCN(c2nc(=O)n(-c3c(C)ccnc3C(C)C)c3nc(-c4c(O)cccc4F)c(F)cc23)C(C)C1 (stereo unspecified) + CC(Nc1ncnc2nc[nH]c12)c1cc2cccc(Cl)c2c(=O)n1-c1ccccc1
< 5.00: pIC50 (second compound 0.0316 µM) | pIC50 (second compound 0.1 µM) | pIC50 (second compound 0.316 µM) | pIC50 (second compound 1 µM) | pIC50 (second compound 3.16 µM) | pIC50 (second compound 10 µM)
inactive: viability, T/C [1] 112% | viability, T/C [2] 102% | viability, T/C [3] 113% | viability, T/C [4] 100% | viability, T/C [5] 103% | viability, T/C [6] 94.9% | viability, T/C [7] 89.4% | viability, T/C [8] 96.2% | viability, T/C [9] 99.1% | viability, T/C [10] 99.8% | viability, T/C [11] 102% | viability, T/C [12] 102% | viability, T/C [13] 106% | viability, T/C [14] 91.5% | viability, T/C [15] 106% | viability, T/C [16] 98.1% | viability, T/C [17] 104% | viability, T/C [18] 92.9% | viability, T/C [19] 102% | viability, T/C [20] 95.4% | viability, T/C [21] 102% | viability, T/C [22] 90.3% | viability, T/C [23] 98.2% | viability, T/C [24] 102% | viability, T/C [25] 110% | viability, T/C [26] 94.1% | viability, T/C [27] 87.6% | viability, T/C [28] 99.5% | viability, T/C [29] 100% | viability, T/C [30] 91.9% | viability, T/C [31] 87.7% | viability, T/C [32] 85.2% | viability, T/C [33] 98.2% | viability, T/C [34] 84.1% | viability, T/C [35] 90.4% | viability, T/C [36] 78.3%

CC1(C)CCC(Nc2ncc(C(F)(F)F)c(-c3c[nH]c4c(P(C)(C)=O)c(C#N)ccc34)n2)CN1 (stereo unspecified) + Cc1nc(NC(=O)N2CCCC2C(N)=O)sc1-c1ccnc(C(C)(C)C(F)(F)F)c1
> 7.50: pIC50 (second compound 0.316 µM) | pIC50 (second compound 1 µM) | pIC50 (second compound 3.16 µM) | pIC50 (second compound 10 µM)
inactive: viability, T/C [1] 64.5% | viability, T/C [2] 49.2% | viability, T/C [3] 52.4% | viability, T/C [4] 54.4% | viability, T/C [5] 58.8% | viability, T/C [6] 71.9% | viability, T/C [7] 54.9% | viability, T/C [8] 50.8% | viability, T/C [9] 50.3% | viability, T/C [10] 53.1% | viability, T/C [11] 54.1% | viability, T/C [12] 66.6% | viability, T/C [13] 45.7% | viability, T/C [14] 39.6% | viability, T/C [15] 35.5% | viability, T/C [16] 38.7% | viability, T/C [17] 43.8% | viability, T/C [18] 52.3% | viability, T/C [19] 34.7% | viability, T/C [20] 32.2% | viability, T/C [21] 35.5% | viability, T/C [22] 34.2% | viability, T/C [23] 36% | viability, T/C [24] 33.7% | viability, T/C [25] 27.9% | viability, T/C [26] 25% | viability, T/C [27] 23.7% | viability, T/C [28] 23.3% | viability, T/C [29] 26.2% | viability, T/C [30] 10.8% | viability, T/C [31] 16.9% | viability, T/C [32] 18.7% | viability, T/C [33] 16.6% | viability, T/C [34] 17.8% | viability, T/C [35] 17.2%
active: viability, T/C [36] 1.7%
< 5.00: pIC50 (second compound 0.0316 µM) | pIC50 (second compound 0.1 µM)

CCCS(=O)(=O)Nc1ccc(F)c(C(=O)c2c[nH]c3ncc(-c4ccc(Cl)cc4)cc23)c1F
18.7% [middle of 4 runs]: viability, T/C (compound 10 µM)
6.37 µM [middle of 4 runs]: IC50 (curve of compound)
inactive: viability, T/C (compound 0.0316 µM) 98.2% [middle of 4 runs] | viability, T/C (compound 0.1 µM) 102% [middle of 4 runs] | viability, T/C (compound 0.316 µM) 101% [middle of 4 runs] | viability, T/C (compound 1 µM) 100% [middle of 4 runs] | viability, T/C (compound 3.16 µM) 107% (2×) and 99.1% and 108%
